# Assays:
# Type in all cases: in vivo
# [1] = tested on: Alopecurus myosuroides (ALOMY); assay: Pre-emergence herbicidal glasshouse test on Alopecurus myosuroides; settings: pre-emergence; 1000 g/h; evaluated after 13 days
# Outline: (§1)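 Scoring scale: 5=80-100%, 4=60-79%, 3=40-59%, 2=20-39%, 1=0-19% damage, assessed on day 13. Compound sprayed at 1000 g/h on soil-grown plants (day 1 pre-, day 8 post-emergence) kept at 24/16 °C, 14 h light.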
# Setaria faberi (SETFA) [2] = assay: Pre-emergence herbicidal glasshouse test on Setaria faberi; settings: pre-emergence; 1000 g/h; evaluated after 13 days
# Outline: as §1
# [3] = tested on: Echinochloa crus-galli (ECHCG); assay: Pre-emergence herbicidal glasshouse test on Echinochloa crus-galli; settings: pre-emergence; 1000 g/h; evaluated after 13 days
# Outline: as §1
# Solanum nigrum (SOLNI) [4] = assay: Pre-emergence herbicidal glasshouse test on Solanum nigrum; settings: pre-emergence; 1000 g/h; evaluated after 13 days
# Outline: as §1
# [5] = tested on: Amaranthus retoflexus (AMARE); assay: Pre-emergence herbicidal glasshouse test on Amaranthus retoflexus; settings: pre-emergence; 1000 g/h; evaluated after 13 days
# Outline: as §1
# [6] = tested on: Ipomoea hederacea (IPOHE); assay: Pre-emergence herbicidal glasshouse test on Ipomoea hederacea; settings: pre-emergence; 1000 g/h; evaluated after 13 days
# Outline: as §1
# [7] = tested on: Alopecurus myosuroides (ALOMY); assay: Post-emergence herbicidal glasshouse test on Alopecurus myosuroides; settings: post-emergence; 1000 g/h; evaluated after 13 days
# Outline: as §1
# Setaria faberi (SETFA) [8] = assay: Post-emergence herbicidal glasshouse test on Setaria faberi; settings: post-emergence; 1000 g/h; evaluated after 13 days
# Outline: as §1
# [9] = tested on: Echinochloa crus-galli (ECHCG); assay: Post-emergence herbicidal glasshouse test on Echinochloa crus-galli; settings: post-emergence; 1000 g/h; evaluated after 13 days
# Outline: as §1
# Solanum nigrum (SOLNI) [10] = assay: Post-emergence herbicidal glasshouse test on Solanum nigrum; settings: post-emergence; 1000 g/h; evaluated after 13 days
# Outline: as §1
# [11] = tested on: Amaranthus retoflexus (AMARE); assay: Post-emergence herbicidal glasshouse test on Amaranthus retoflexus; settings: post-emergence; 1000 g/h; evaluated after 13 days
# Outline: as §1
# [12] = tested on: Ipomoea hederacea (IPOHE); assay: Post-emergence herbicidal glasshouse test on Ipomoea hederacea; settings: post-emergence; 1000 g/h; evaluated after 13 days
# Outline: as §1
Structure (SMILES),PRE Application ALOMY herbicidal damage (five point scale) [1],PRE Application SETFA herbicidal damage (five point scale) (Setaria faberi (SETFA) [2]),PRE Application ECHCG herbicidal damage (five point scale) [3],PRE Application SOLNI herbicidal damage (five point scale) (Solanum nigrum (SOLNI) [4]),PRE Application AMARE herbicidal damage (five point scale) [5],PRE Application IPOHE herbicidal damage (five point scale) [6],POST Application ALOMY herbicidal damage (five point scale) [7],POST Application SETFA herbicidal damage (five point scale) (Setaria faberi (SETFA) [8]),POST Application ECHCG herbicidal damage (five point scale) [9],POST Application SOLNI herbicidal damage (five point scale) (Solanum nigrum (SOLNI) [10]),POST Application AMARE herbicidal damage (five point scale) [11],POST Application IPOHE herbicidal damage (five point scale) [12]
C=CCn1ncc(-c2ccccc2S(C)(=O)=O)c(O)c1=O [Compound 2.001],5 (5=80-100% damage),5 (5=80-100% damage),5 (5=80-100% damage),5 (5=80-100% damage),5 (5=80-100% damage),5 (5=80-100% damage),5 (5=80-100% damage),5 (5=80-100% damage),5 (5=80-100% damage),5 (5=80-100% damage),5 (5=80-100% damage),5 (5=80-100% damage)
CC[S+]([O-])c1ccccc1-c1cnn(COC)c(=O)c1O (stereo not drawn) [Compound 2.003],3 (3=40-59% damage),4 (4=60-79% damage),4 (4=60-79% damage),1 (1=0-19% damage),5 (5=80-100% damage),1 (1=0-19% damage),3 (3=40-59% damage),4 (4=60-79% damage),5 (5=80-100% damage),5 (5=80-100% damage),5 (5=80-100% damage),4 (4=60-79% damage)
CCS(=O)(=O)c1ccccc1-c1cnn(COC)c(=O)c1O [Compound 2.004],5 (5=80-100% damage),5 (5=80-100% damage),5 (5=80-100% damage),5 (5=80-100% damage),5 (5=80-100% damage),4 (4=60-79% damage),3 (3=40-59% damage),5 (5=80-100% damage),5 (5=80-100% damage),5 (5=80-100% damage),5 (5=80-100% damage),5 (5=80-100% damage)
COCn1ncc(-c2ccc(Cl)cc2S(C)(=O)=O)c(O)c1=O [Compound 2.005],5 (5=80-100% damage),5 (5=80-100% damage),5 (5=80-100% damage),5 (5=80-100% damage),5 (5=80-100% damage),5 (5=80-100% damage),5 (5=80-100% damage),5 (5=80-100% damage),5 (5=80-100% damage),5 (5=80-100% damage),5 (5=80-100% damage),5 (5=80-100% damage)
COCn1ncc(-c2ccc(F)cc2S(C)(=O)=O)c(O)c1=O [Compound 2.006],5 (5=80-100% damage),5 (5=80-100% damage),5 (5=80-100% damage),5 (5=80-100% damage),5 (5=80-100% damage),5 (5=80-100% damage),5 (5=80-100% damage),5 (5=80-100% damage),5 (5=80-100% damage),5 (5=80-100% damage),5 (5=80-100% damage),5 (5=80-100% damage)
COc1ccc(Cn2ncc(-c3ccc(Cl)cc3S(C)(=O)=O)c(O)c2=O)cc1 [Compound 2.008],4 (4=60-79% damage),2 (2=20-39% damage),5 (5=80-100% damage),5 (5=80-100% damage),5 (5=80-100% damage),3 (3=40-59% damage),3 (3=40-59% damage),5 (5=80-100% damage),5 (5=80-100% damage),5 (5=80-100% damage),5 (5=80-100% damage),5 (5=80-100% damage)
C#Cn1ncc(-c2ccc(C(F)(F)F)cc2S(C)(=O)=O)c(O)c1=O [Compound 2.010],5 (5=80-100% damage),5 (5=80-100% damage),5 (5=80-100% damage),5 (5=80-100% damage),5 (5=80-100% damage),5 (5=80-100% damage),5 (5=80-100% damage),5 (5=80-100% damage),5 (5=80-100% damage),5 (5=80-100% damage),5 (5=80-100% damage),5 (5=80-100% damage)
C#Cn1ncc(-c2ccc(Cl)cc2S(C)(=O)=O)c(O)c1=O [Compound 2.011],5 (5=80-100% damage),5 (5=80-100% damage),5 (5=80-100% damage),5 (5=80-100% damage),5 (5=80-100% damage),5 (5=80-100% damage),5 (5=80-100% damage),5 (5=80-100% damage),5 (5=80-100% damage),5 (5=80-100% damage),5 (5=80-100% damage),5 (5=80-100% damage)
CS(=O)(=O)c1ccccc1-c1cnn(CC(F)F)c(=O)c1O [Compound 2.012],5 (5=80-100% damage),5 (5=80-100% damage),5 (5=80-100% damage),5 (5=80-100% damage),5 (5=80-100% damage),5 (5=80-100% damage),5 (5=80-100% damage),5 (5=80-100% damage),5 (5=80-100% damage),5 (5=80-100% damage),5 (5=80-100% damage),5 (5=80-100% damage)
